{"source": "ChEMBL document CHEMBL1212711", "about": "“Mechanistic and functional insights into fatty acid activation in Mycobacterium tuberculosis” (Nat Chem Biol, 2009)", "key": {"[1]": {"test_system": "Mycobacterium tuberculosis H37Rv", "assay": "Selectivity of Mycobacterium tuberculosis H37Rv FAAL28 deletion mutant over wild type FACL1"}, "[2]": {"test_system": "Mycobacterium tuberculosis H37Rv", "assay": "Activity at Mycobacterium tuberculosis H37Rv FAAL28 deletion mutant assessed as conversion of lauroyl-AMP to lauryl-CoA by radio-TLC assay"}, "[3]": {"test_system": "Mycobacterium tuberculosis H37Rv", "assay": "Activity at Mycobacterium tuberculosis H37Rv FACL19 i mutant containing FAAL28 (342-372) residues instead of FACL6 (362-376) residues assessed as acy-CoA formation by radio-TLC assay"}, "[4]": {"test_system": "Mycobacterium tuberculosis H37Rv", "assay": "Activity at Mycobacterium tuberculosis H37Rv FACL19 AS mutant containing 15 amino acid stretch of alanine and serine residues assessed as acy-CoA formation by radio-TLC assay"}}, "note": "The source made the active and inactive calls. No cut-off for these calls is given here.", "data": [{"smiles": "CC(C)(COP(=O)(O)OP(=O)(O)OC[C@H]1O[C@@H](n2cnc3c(N)ncnc32)[C@H](O)[C@@H]1OP(=O)(O)O)[C@@H](O)C(=O)NCCC(=O)NCCS", "note": "[COENZYME_A]", "values": [{"measurement": "fold change (FC)", "setting": "[1]", "value": 10}, {"measurement": "kcat", "setting": "[2]", "value": 19500, "unit": "s⁻¹"}, {"measurement": "Activity", "setting": "[3]", "value": "inactive"}, {"measurement": "Activity", "setting": "[4]", "value": "inactive"}]}]}
